The test relates to Mycobacterium tuberculosis. Put plainly: Effect on mutation frequency of Mycobacterium tuberculosis H37Ra assessed as mutation prevention concentration. It counts as functional.

In the case of `NNC(=O)c1ccncc1` [ISONIAZID], the Activity amounted to 50 mg/L.

The values are drawn from ChEMBL document CHEMBL1150785 (Antimicrob Agents Chemother, 2007).
